Measurements as given in PMC11256326, “Discovery of Heparin Mimetic, Potent, and Selective Inhibitors of Human Clotting Factor XIIIa” (ACS Omega, 2024).

Key:
FXIIIa = target: T1, FXIIIa (Homo sapiens, UniProt P00488); assay: bisubstrate, fluorescence-based trans-glutamination assay; assay type: biochemical; settings: for HS (Hill slope), FXIIIa inhibition: logistic fit eq 1; for IC50: pH 7.4, 37 °C, substrates dansylcadaverine and N,N-dimethylcasein
T1 construct: purchased Haematologic Technologies; host or cells: human plasma
T1 sequence (P00488 39-732 limits assumed): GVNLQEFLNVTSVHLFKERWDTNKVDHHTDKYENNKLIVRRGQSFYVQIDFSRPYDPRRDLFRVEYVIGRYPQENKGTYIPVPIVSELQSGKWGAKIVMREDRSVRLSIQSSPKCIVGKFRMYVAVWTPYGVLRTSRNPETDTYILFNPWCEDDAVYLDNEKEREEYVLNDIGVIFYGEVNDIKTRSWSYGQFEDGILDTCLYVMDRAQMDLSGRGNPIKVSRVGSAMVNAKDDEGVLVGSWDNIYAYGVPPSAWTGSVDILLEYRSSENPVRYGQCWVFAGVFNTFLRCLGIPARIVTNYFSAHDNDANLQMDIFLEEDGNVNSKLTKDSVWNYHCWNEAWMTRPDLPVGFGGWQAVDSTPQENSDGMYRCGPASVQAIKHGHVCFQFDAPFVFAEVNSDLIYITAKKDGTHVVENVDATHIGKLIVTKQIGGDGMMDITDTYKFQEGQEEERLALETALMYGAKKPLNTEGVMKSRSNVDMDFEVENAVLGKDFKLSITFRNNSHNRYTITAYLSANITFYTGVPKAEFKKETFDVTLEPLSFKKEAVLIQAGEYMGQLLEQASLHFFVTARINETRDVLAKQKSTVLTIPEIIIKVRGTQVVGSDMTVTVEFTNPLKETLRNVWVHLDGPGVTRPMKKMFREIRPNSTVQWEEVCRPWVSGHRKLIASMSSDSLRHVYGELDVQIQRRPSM
Text: A series of 27 sulfonated molecules (Figure 3) was screened for inhibition of human FXIIIa using a modified bisubstrate, fluorescence-based trans-glutamination assay, as described earlier.[36],[49] Dansylcadaverine and N,N-dimethylcasein were used as two substrates, which upon FXIIIa-dependence conjugation show a marked increase in fluorescence at 550 nm (λEX = 360 nm). The sulfonated molecules were structurally diverse given their number of anionic groups (mono- (inhibitors 24–27) to octa- (inhibitor 9)), number of building blocks (monomeric (molecules 26–29) to […] (inhibitor 14)), and the nature of the building block of oligomeric derivatives (benzamide derivatives (inhibitors 3–10, 24, and 25), triazine derivatives (inhibitors 11–14), and azo-naphthalene derivatives (molecules 15–22), and ureido-naphthalene derivative (23)) (Figure 3).
To measure the potency and efficacy of these inhibitors, the dose-dependence of FXIIIa inhibition was evaluated using logistic eq 1 (Table 1). The potency of inhibition refers to the IC50 (x-axis), whereas the efficacy refers to the net change in residual FXIIIa activity (ΔY%) (y-axis). Iodoacetamide, a nonselective inhibitor of thiol-containing enzymes, was used as a positive control.
To evaluate the effect of sulfonated molecules on human FXIIIa, a bisubstrate, fluorescence-based trans-glutamination assay was performed as we reported previously.[36],[49] Generally, 1 μL of the sulfonated molecule was diluted with 87 μL of pH 7.4 buffer (50 mM Tris-HCl, 1 mM CaCl2, 100 mM NaCl, and 2 mg/mL N,N-dimethylcasein) and 5 μL dithiothreitol (20 mM) at 37 °C followed by the addition of 2 μL of human FXIIIa (0.3 μM) and incubation for 10 min. The activity of FXIIIa was monitored following the addition of 5 μL of dansylcadaverine (2 mM) by measuring the initial rate of increase in fluorescence emission (λEx. = 360 nm and λEm. = 550 nm). Relative residual FXIIIa activity at each concentration of the inhibitor was calculated from the ratio of FXIIIa activity in the presence and absence of the inhibitor. Logistic eq 1 was used to fit the concentration dependence of residual FXIIIa activity to obtain the potency (IC50) and efficacy (ΔY%) of inhibition. [drawing 1] 1
This equation defines Y as the ratio of residual FXIIIa activity with the inhibitor present compared to its absence. YM represents the maximum possible value of residual FXIIIa activity, while YO denotes the minimum possible value. IC50 signifies the concentration of the inhibitor causing 50% enzyme activity inhibition, and HS represents the Hill slope. Determination of YM, YO, IC50, and HS values is achieved through nonlinear curve fitting of the experimental data.

normal human plasma = assay: activated partial thromboplastin time (APTT) of normal human plasma; assay type: biochemical; settings: for APTT2X (concentration required to double APTT): normal human plasma, in vitro
Procedure: To further evaluate the selectivity as well as the potential toxicity of inhibitors, we studied their effects on the clotting times of normal human plasma as well as their effects on the proliferation of three cell lines. On the one hand, the inhibitors’ effects on activated partial thromboplastin time (APTT) and prothrombin time (PT) were measured, as described earlier under in vitro conditions,[52]−[55] using variable concentrations (0–2000 μM) (Table 3). […] On the other hand, the antiproliferative properties of inhibitors 13 and 16 were evaluated in three cell lines of breast (MCF-7), intestine (CaCo-2), and kidney (HEK-293) (Figure 5B), as described earlier.[56] […] Overall, inhibitor 16 can be considered for further development as a potent, selective, and nontoxic inhibitor of human FXIIIa.
Clotting times, including activated partial thromboplastin time (APTT) and prothrombin time (PT), were assessed in normal human plasma utilizing the BBL Fibrosystem fibrometer from Becton–Dickinson, as detailed in previous publications.[51]−[54] For the PT assay, thromboplastin-D was dissolved in 4 mL of highly purified water and then warmed to 37 °C. Subsequently, 10 μL of the inhibitor was added to 90 μL of normal human plasma and incubated for 30 s. Following this, 200 μL of prewarmed PT reagent was added, and the clotting time was recorded. In the APTT assay, 10 μL of the inhibitor was combined with 90 μL of normal human plasma and 100 μL of prewarmed APTT reagent (0.2% ellagic acid). After incubation for 4 min at 37 °C, clotting was initiated by adding 100 μL of prewarmed 0.025 M CaCl2, and the clotting time was documented. Multiple concentrations of each molecule were employed in both assays to establish a concentration vs effect curve.

HS (Hill slope), FXIIIa inhibition (FXIIIa)	SMILES	IC50 (FXIIIa)	APTT2X (concentration required to double APTT) (normal human plasma)	concentration to double APTT as fold of the FXIIIa-IC50 (normal human plasma)
1.1 ± 0.1	Nc1c(/N=N/c2ccc(Nc3nc(Cl)nc(Nc4cccc(S(=O)(=O)O)c4)n3)cc2S(=O)(=O)O)c(S(=O)(=O)O)cc2c(O)c(/N=N/c3ccc(Nc4nc(Cl)nc(Nc5cccc(S(=O)(=O)O)c5)n4)cc3S(=O)(=O)O)ccc12 [compound 14]	5.1 ± 0.3 µM	583 ± 60 µM	
1.5 ± 0.6	Cc1cc(-c2ccc(/N=N/c3ccc4c(S(=O)(=O)O)cc(S(=O)(=O)O)c(N)c4c3O)c(C)c2)ccc1/N=N/c1ccc2c(S(=O)(=O)O)cc(S(=O)(=O)O)c(N)c2c1O [compound 18]		224.3 ± 20 µM	
0.7 ± 0.03	Nc1c(S(=O)(=O)O)cc(Nc2ccc(Nc3nc(Cl)nc(Nc4ccccc4S(=O)(=O)O)n3)c(S(=O)(=O)O)c2)c2c1C(=O)c1ccccc1C2=O [compound 13]	3.1 ± 0.3 µM	1187.2 ± 175 µM	

SMILES	HS (Hill slope), FXIIIa inhibition (FXIIIa)	IC50 (FXIIIa)	APTT2X (concentration required to double APTT) (normal human plasma)	concentration to double APTT as fold of the FXIIIa-IC50 (normal human plasma)
COc1cc(-c2ccc(/N=N/c3ccc4c(S(=O)(=O)O)cc(S(=O)(=O)O)c(N)c4c3O)c(OC)c2)ccc1/N=N/c1ccc2c(S(=O)(=O)O)cc(S(=O)(=O)O)c(N)c2c1O [compound 19]	1.4 ± 0.4	13.9 ± 2.6 µM	1840.7 ± 88 µM	
Nc1c(/N=N/c2ccc(S(=O)(=O)CCOS(=O)(=O)O)cc2)c(S(=O)(=O)O)cc2cc(S(=O)(=O)O)c(/N=N/c3ccc(S(=O)(=O)CCOS(=O)(=O)O)cc3)c(O)c12 [compound 16]	0.8 ± 0.1	2.4 ± 0.5 µM	704.6 ± 69 µM	> 290 fold
